{"source": "paper PMC4014701", "about": "(Pharmaceuticals, 2014)", "key": {"MRP2 (MDCK-MRP2 cells) [1]": {"molecular_target": "T1, MRP2 (MDCK-MRP2 cells) (Homo sapiens, UniProt Q92887)", "T1 sequence (Q92887 whole entry)": "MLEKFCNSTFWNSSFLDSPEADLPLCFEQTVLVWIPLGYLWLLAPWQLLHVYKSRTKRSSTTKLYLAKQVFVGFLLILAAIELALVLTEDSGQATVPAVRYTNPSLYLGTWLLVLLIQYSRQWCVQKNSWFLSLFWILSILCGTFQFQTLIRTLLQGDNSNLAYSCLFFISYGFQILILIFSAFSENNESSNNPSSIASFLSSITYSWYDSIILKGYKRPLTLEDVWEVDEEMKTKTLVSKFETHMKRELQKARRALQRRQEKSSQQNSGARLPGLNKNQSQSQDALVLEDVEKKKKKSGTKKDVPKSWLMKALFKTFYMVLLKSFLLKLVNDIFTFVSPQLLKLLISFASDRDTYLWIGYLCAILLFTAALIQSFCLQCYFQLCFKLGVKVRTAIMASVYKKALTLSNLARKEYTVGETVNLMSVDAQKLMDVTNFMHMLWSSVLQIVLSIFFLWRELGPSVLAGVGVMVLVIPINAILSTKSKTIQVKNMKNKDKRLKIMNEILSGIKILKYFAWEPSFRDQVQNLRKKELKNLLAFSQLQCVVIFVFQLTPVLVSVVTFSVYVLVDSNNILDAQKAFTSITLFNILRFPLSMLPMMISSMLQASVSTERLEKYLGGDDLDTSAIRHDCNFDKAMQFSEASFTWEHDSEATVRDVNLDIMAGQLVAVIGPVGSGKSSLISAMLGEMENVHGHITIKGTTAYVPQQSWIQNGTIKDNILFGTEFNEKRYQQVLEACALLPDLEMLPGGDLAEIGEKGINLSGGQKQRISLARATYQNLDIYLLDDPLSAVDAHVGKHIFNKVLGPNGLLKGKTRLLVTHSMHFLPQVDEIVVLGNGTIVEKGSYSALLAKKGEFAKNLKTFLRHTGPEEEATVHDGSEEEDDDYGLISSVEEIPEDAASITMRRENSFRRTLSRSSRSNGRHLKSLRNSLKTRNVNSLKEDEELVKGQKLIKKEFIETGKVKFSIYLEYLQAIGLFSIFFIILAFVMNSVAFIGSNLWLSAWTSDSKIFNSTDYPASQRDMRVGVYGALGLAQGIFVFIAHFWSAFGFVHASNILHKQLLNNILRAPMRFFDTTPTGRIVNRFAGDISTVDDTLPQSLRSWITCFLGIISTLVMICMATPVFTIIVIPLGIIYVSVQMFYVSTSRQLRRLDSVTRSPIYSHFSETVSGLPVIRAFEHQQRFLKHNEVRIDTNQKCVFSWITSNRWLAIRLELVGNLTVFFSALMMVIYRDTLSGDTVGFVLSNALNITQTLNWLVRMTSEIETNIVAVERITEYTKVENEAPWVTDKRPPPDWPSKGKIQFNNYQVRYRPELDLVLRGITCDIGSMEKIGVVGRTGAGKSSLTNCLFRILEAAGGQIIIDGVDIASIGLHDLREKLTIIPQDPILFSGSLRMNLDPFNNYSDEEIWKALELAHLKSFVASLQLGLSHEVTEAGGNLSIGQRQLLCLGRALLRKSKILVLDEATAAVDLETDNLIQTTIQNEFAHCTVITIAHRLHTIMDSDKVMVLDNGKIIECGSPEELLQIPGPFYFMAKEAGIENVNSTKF", "experiment": "[3H]-LPV uptake in MDCK-MRP2 cells", "type": "cell-based", "set-up": "A. Schinkel and P. Borst (Netherlands Cancer Institute); host or cells: MDCKII (MDCKII-MRP2), retrovirally transfected", "conditions": "for [3H]-LPV uptake, fold enhancement in presence of inhibitor: DPBS pH 7.4, 37 °C", "method": "(§1) Confluent cells were then trypsinized and plated at a density of 3 × 10^6 cells in 12 well culture plates. Medium was replaced every alternate day until cells reached confluency (6–7 days). Cellular uptake studies were performed on confluent cell monolayers according to previously published protocol from our laboratory. Briefly, medium was removed and cell monolayer was washed with 2 mL of DPBS (130 mM NaCl, 0.03 mM KCl, 7.5 mM Na2HPO4, 1.5 mM KH2PO4, 1 mM CaCl2, 0.5 mM MgSO4, and 5 mM glucose, pH 7.4) three times at 37 °C (each wash of 10 min). […] Following incubation, radioactive solution was quickly removed and plates were washed with ice-cold stop solution (210 mM KCl, 2 mM HEPES, pH of 7.4) to arrest the uptake process. One mL of lysis buffer (0.1% Triton-X solution in 0.3% NaOH) was added to each well and plates were stored overnight at RT. Later, 500 µL solutions were transferred to scintillation vials containing 3 mL of scintillation cocktail. The radioactivity associated with cells was analyzed with a scintillation counter (Beckman Instruments Inc., Model LS-6500; Fullerton, CA, USA). Uptake rate was normalized to protein count which was quantified with a BioRad protein estimation kit.\n(§2) Prior to initiation of uptake studies, cells were treated with efflux inhibitors for a period of 15 min. Uptake study was then initiated according to a procedure described in section 2.2.5."}, "[2]": {"experiment": "Solubility study in distilled deionized water (DDW)", "conditions": "for solubility at 24 h: distilled deionized water, water, thermodynamic from solid; for Solubility, fold higher relative to LPV: DDW; for Solubility in DDW: saturated solution, room temperature, 24 h", "method": "Aqueous solubility study of prodrugs was performed according to the published protocol from our laboratory. Saturated solution of each prodrug was prepared in DDW in siliconized tubes. Tubes were placed in shaking water bath at room temperature (RT) for 24 h. Tubes were centrifuged at 10,000 rpm for 10 min to separate undissolved prodrugs. The supernatant was separated, filtered through 0.45 µm membrane (Nalgene syringe filter) and analyzed with HPLC after appropriate dilutions.\n(§3) Aqueous solubility and buffer stability samples were measured with reversed phase HPLC technique. Waters 515 pump (Waters, Milford, MA, USA) connected to a UV detector (Absorbance Detector Model UV-C, RAININ, Dynamax, Palo Alto, CA, USA) was employed. A C(18) Kinetex column (100 × 4.6 mm, 2.6 µ; Phenomenex, Torrance, CA, USA) was pumped with mobile phase (1:1) acetonitrile and water (0.1% trifluoroacetic acid) at a flow rate of 0.3 mL/min. Analytes were detected with UV detection at a wavelength of 210 nm."}, "MDCK-WT cells": {"test_system": "MDCK-WT cells", "experiment": "Cytotoxicity, MTS assay", "type": "cell-based", "conditions": "4 h incubation; for Reduction in absorbance (positive controls): medium containing 10% DMSO or 0.1% Triton-X", "method": "Cytotoxicity of prodrugs was determined in MDCK-WT cells with MTS assay based cytotoxicity kit. Briefly, cells were grown overnight in 96 well plates at a density of 20,000 cells per well prior to drug and prodrug addition. […] Cells were then incubated for 4 h at 37 °C. Following incubation, 20 μL of MTS stock solution was added to each well and incubated for 2 h at 37 °C. […] The quantity of formazan product as measured by absorbance is directly proportional to the number of viable cells in test samples."}, "P-gp (MDCK-MDR1 cells) [3]": {"molecular_target": "T2, P-gp (MDCK-MDR1 cells) (Homo sapiens, UniProt P08183)", "T2 sequence (P08183 whole entry)": "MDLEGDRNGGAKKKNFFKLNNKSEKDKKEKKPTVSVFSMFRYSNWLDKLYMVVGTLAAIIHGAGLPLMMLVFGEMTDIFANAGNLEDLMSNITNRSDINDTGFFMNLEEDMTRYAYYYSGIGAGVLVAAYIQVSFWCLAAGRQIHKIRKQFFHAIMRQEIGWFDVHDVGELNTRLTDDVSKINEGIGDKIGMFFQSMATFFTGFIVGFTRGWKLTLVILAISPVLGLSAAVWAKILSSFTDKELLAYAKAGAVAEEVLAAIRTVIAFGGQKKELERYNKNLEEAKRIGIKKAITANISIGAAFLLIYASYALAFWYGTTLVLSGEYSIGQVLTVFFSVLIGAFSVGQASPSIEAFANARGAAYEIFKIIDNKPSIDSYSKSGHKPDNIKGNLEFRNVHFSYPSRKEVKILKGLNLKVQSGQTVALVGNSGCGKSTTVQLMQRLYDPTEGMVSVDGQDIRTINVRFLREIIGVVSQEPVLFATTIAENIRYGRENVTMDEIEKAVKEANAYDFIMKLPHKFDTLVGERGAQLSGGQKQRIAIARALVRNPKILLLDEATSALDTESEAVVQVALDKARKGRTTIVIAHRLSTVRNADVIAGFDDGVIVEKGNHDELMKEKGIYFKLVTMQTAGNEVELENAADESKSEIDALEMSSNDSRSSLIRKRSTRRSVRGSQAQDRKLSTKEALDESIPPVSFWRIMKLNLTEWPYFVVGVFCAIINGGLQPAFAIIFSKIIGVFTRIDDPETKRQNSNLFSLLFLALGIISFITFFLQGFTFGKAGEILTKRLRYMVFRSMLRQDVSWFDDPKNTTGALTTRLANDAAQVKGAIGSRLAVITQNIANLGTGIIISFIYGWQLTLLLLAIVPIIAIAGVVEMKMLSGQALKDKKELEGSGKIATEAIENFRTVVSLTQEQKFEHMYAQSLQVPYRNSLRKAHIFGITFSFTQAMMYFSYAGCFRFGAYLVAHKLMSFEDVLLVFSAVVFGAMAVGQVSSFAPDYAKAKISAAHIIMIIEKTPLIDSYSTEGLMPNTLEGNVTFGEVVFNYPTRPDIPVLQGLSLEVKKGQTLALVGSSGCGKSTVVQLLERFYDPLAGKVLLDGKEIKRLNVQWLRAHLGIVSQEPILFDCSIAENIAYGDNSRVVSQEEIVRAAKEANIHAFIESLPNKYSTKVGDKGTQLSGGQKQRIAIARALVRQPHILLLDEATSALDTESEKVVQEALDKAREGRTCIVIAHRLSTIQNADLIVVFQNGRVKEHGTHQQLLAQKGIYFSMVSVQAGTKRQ", "conditions": "MDCK-MDR1, DPBS pH 7.4, 37 °C", "method": "as §1, §2"}, "[4]": {"experiment": "Buffer stability (chemical hydrolysis) in DPBS", "conditions": "for Degradation half life: DPBS; for half-life at 50 µM: DPBS buffer", "method": "Chemical hydrolysis study of prodrugs was carried out according to the previously published protocols from our laboratory. Degradation rate constant and half-life (t1/2) of prodrugs were determined at various pH. […] Microcentrifuge tubes were placed in shaking water bath (60 rpm) at 37 °C. Samples (100 µL) were withdrawn at predetermined time points and stored at −80° C until further analysis. Prodrug concentrations remaining were plotted versus time in order to calculate degradation rate constants.\nas §3"}, "P-gp (MDCK-MDR1 cells) [5]": {"molecular_target": "T2, P-gp (MDCK-MDR1 cells)", "experiment": "Transepithelial transport across MDCK-MDR1 cells", "method": "Samples were stored at −80 °C until further analysis.\nSamples were extracted with liquid–liquid extraction technique."}, "[6]": {"test_system": "CYP3A4 (rat liver microsomes)", "experiment": "Rat liver microsomal stability", "conditions": "for Half life in liver microsomes, fold higher compared to LPV: time dependent study", "method": "(§4) One mL of microsomal solution was generated by adding microsomal protein (0.3 mg/mL), magnesium chloride (5 mM), glucose 6-phosphate (5 mM), b-NADP1 (1 mM), and glucose 6-phosphate dehydrogenase (1 U/mL) in phosphate buffer (100 mM, pH 7.4). […] The metabolic reaction was initiated by adding the NADPH generating system. NADPH generating system was freshly prepared by adding G-6-P, G-6-P DH and NADP in DDW. At predetermined time points, metabolic reaction was arrested by adding equal volumes of ice-cold acetonitrile to the sample. Samples were stored at −80 °C until further analysis by LCMS/MS technique.\n(§5) This study was performed according to the previously published protocols from our laboratory. At predetermined time points, about 100 μL of samples were withdrawn and equal volume of acetonitrile was added to stop the degradation process. Degradation study was conducted for a period of 2 h. Samples were stored at −80 °C until further analysis.\n(§6) Enzymatic degradation was arrested by adding equal amount of acetonitrile and samples were stored in −80 °C until further analysis.\n(§7) Rat liver microsomes were employed at the concentration of 0.3 mg/mL. […] Liver microsomal solution was incubated with ketoconazole for 15 min prior to the initiation of stability study."}, "MRP2 (MDCK-MRP2 cells) [7]": {"molecular_target": "T1, MRP2 (MDCK-MRP2 cells)", "experiment": "Transepithelial transport across MDCK-MRP2 cells", "description": "Transwell® inserts were coated with type 1 rat tail collagen (100 µg/cm^2). Cells were seeded at a density of 250,000 cells per well. Transport studies were conducted across MDCK-MDR1 and MDCK-MRP2 cells in presence and absence of efflux inhibitors for a period of 3 h at 37 °C. Prior to the initiation of transport study, cell monolayer integrity was evaluated by monitoring transepithelial electric resistance (TEER), with an EVOM (epithelial volt ohmmeter from World Precision Instruments, Sarasota, FL, USA). TEER values of the cell monolayer were approximately 250 Ω*cm^2. Monolayers were washed thoroughly with DBPS (pH7.4) for 15 min at 37 °C, three times. […] At predetermined time points (30, 60, 120 and 180 min), 100 µL sample was withdrawn from the receiving chamber and replaced with fresh DPBS to maintain sink conditions. Samples were stored at −80 °C until further analysis. To determine the effect of efflux inhibitors, cells were treated GF 120918 (MDCK-MDR1) and MK 571 (MDCK-MRP2) prior to initiation of the transport study.\nSamples were extracted with liquid–liquid extraction technique. About, 50 μL of verapamil (200 ng) was added as an internal standard to each sample. Analytes were extracted by vortexing with 800 μL water saturated ethyl acetate for 2.5 min. Following centrifugation at 10,000 rpm for 7 min, approximately 600 µL of ethyl acetate layer was collected and evaporated under reduce pressure for 45 min. The residue was reconstituted in 100 μL of acetonitrile (80%) and water (20%) containing 0.1% formic acid. Ten microliters of reconstituted samples were injected in LCMS/MS. Similarly, standard solutions were extracted from DPBS and quantified with LCMS/MS. […]\nTransepithelial permeability was determined by plotting cumulative amount of analyte transported against time. […]\nTransepithelial permeability was calculated by normalizing the steady-state flux with the donor concentration (Cd) according to Equation (2): Transepithelial permeability = flux/Cd (2)"}, "P-gp (MDCK-MDR1 cells) [8]": {"molecular_target": "T2, P-gp (MDCK-MDR1 cells)", "experiment": "Cellular uptake of unlabelled LPV and prodrugs in MDCK-MDR1 cells", "type": "in vitro ADME", "set-up": "A. Schinkel and P. Borst (Netherlands Cancer Institute); host or cells: MDCK (MDCK-MDR1), retrovirally transfected", "conditions": "5 µM, 30 min", "method": "About 500 µL of DMEM was added to each well and plates were kept in −80 °C overnight for cell lysis."}, "CYP3A4": {"test_system": "CYP3A4", "experiment": "Rat liver microsomal stability", "conditions": "Sprague Dawley, rat, pH 7.4", "method": "as §4, §5, §6, §7"}}, "note": "Read-outs that look alike come from different tables or passages of the source.", "data": [{"smiles": "CN(C)C(=O)CCSC(SCCC(=O)O)c1cccc(/C=C/c2ccc3ccc(Cl)cc3n2)c1", "note": "(stereo not shown) [MK 571]", "values": [{"measurement": "[3H]-LPV uptake, fold enhancement in presence of inhibitor", "setting": "MRP2 (MDCK-MRP2 cells) [1]; 25 µM inhibitor", "result": 2.5, "unit": "fold"}, {"measurement": "[3H]-LPV uptake, fold enhancement in presence of inhibitor", "setting": "MRP2 (MDCK-MRP2 cells) [1]; 75 µM inhibitor", "result": 3, "unit": "fold"}]}, {"smiles": "Cc1cccc(C)c1OCC(=O)N[C@@H](Cc1ccccc1)[C@@H](O)C[C@H](Cc1ccccc1)NC(=O)[C@H](C(C)C)N1CCCNC1=O", "note": "[LPV, lopinavir]", "values": [{"measurement": "solubility at 24 h", "setting": "[2]", "result": "40 ± 8", "unit": "µg/mL"}, {"measurement": "Cytotoxicity", "setting": "MDCK-WT cells; 100 µM", "result": "generated cytotoxic effects"}, {"measurement": "[3H]-LPV uptake in presence of increasing concentrations of test compound", "setting": "P-gp (MDCK-MDR1 cells) [3]", "result": "elevated significantly"}, {"measurement": "[3H]-LPV uptake in presence of increasing concentrations of test compound", "setting": "MRP2 (MDCK-MRP2 cells) [1]; MDCK-MRP2, DPBS pH 7.4, 37 °C", "result": "enhancement of [3H]-LPV uptake"}]}, {"smiles": "CSCCC(N)C(=O)OC(CC(Cc1ccccc1)NC(=O)C(C(C)C)N1CCCNC1=O)C(Cc1ccccc1)NC(=O)COc1c(C)cccc1C", "note": "(stereo not shown) [Met-LPV, methionine-LPV]", "values": [{"measurement": "Solubility, fold higher relative to LPV", "setting": "[2]", "result": "~9", "unit": "fold"}, {"measurement": "Solubility in DDW", "setting": "[2]", "result": "362 ± 21", "unit": "µg/mL"}, {"measurement": "Degradation half life", "setting": "[4]; pH 4, 37 °C", "result": "119 ± 6", "unit": "h"}, {"measurement": "Degradation half life", "setting": "[4]; pH 5.5, 37 °C", "result": "55 ± 6", "unit": "h"}, {"measurement": "Degradation half life", "setting": "[4]; pH 7.4, 37 °C", "result": "6.2 ± 0.4", "unit": "h"}, {"measurement": "A-B permeability, fold higher relative to LPV", "setting": "P-gp (MDCK-MDR1 cells) [5]", "result": "~2.3", "unit": "fold"}, {"measurement": "Degradation rate constant in liver microsomal solution", "setting": "[6]", "result": "~3.6 ± 0.4 × 10^−^3 min^−^1"}, {"measurement": "Intrinsic clearance (Vmax/Km)", "setting": "[6]", "result": 0.5, "unit": "mL/min/mg protein"}, {"measurement": "Km", "setting": "[6]", "result": "~13", "unit": "µM"}, {"measurement": "Half life in liver microsomes, fold higher compared to LPV", "setting": "[6]", "result": "1.6 to 1.8", "unit": "fold"}, {"measurement": "A-B permeability, fold higher relative to LPV", "setting": "MRP2 (MDCK-MRP2 cells) [7]", "result": "~1.9", "unit": "fold"}, {"measurement": "Cellular uptake, fold higher relative to LPV", "setting": "P-gp (MDCK-MDR1 cells) [8]", "result": "~2.4", "unit": "fold"}]}, {"smiles": "CC(C)(C)CC(C)(C)c1ccc(OCCO)cc1", "note": "[Triton-X]", "values": [{"measurement": "Reduction in absorbance (positive controls)", "setting": "MDCK-WT cells", "result": 90, "unit": "%"}]}, {"smiles": "CCC(C)C(N)C(=O)OC(CC(Cc1ccccc1)NC(=O)C(C(C)C)N1CCCNC1=O)C(Cc1ccccc1)NC(=O)COc1c(C)cccc1C", "note": "(stereo not shown) [Ile-LPV, isoleucine-LPV]", "values": [{"measurement": "Solubility, fold higher relative to LPV", "setting": "[2]", "result": "about 15 fold"}, {"measurement": "solubility at 24 h", "setting": "[2]", "result": "625 ± 27", "unit": "µg/mL"}, {"measurement": "half-life at 50 µM", "setting": "[4]; pH 4", "result": "101 ± 29", "unit": "h"}, {"measurement": "half-life at 50 µM", "setting": "[4]; pH 5.5", "result": "53 ± 10", "unit": "h"}, {"measurement": "half-life at 50 µM", "setting": "[4]; pH 7.4", "result": "6.4 ± 0.3", "unit": "h"}, {"measurement": "A-B permeability, fold higher relative to LPV", "setting": "P-gp (MDCK-MDR1 cells) [5]", "result": "about 3 fold"}, {"measurement": "Half life in liver microsomes, fold higher compared to LPV", "setting": "[6]", "result": "1.6 to 1.8", "unit": "fold"}, {"measurement": "Km at 5 min", "setting": "CYP3A4", "result": "~14.3", "unit": "µM"}, {"measurement": "A-B permeability, fold higher relative to LPV", "setting": "MRP2 (MDCK-MRP2 cells) [7]", "result": "about 2.8 fold"}, {"measurement": "Cellular uptake, fold higher relative to LPV", "setting": "P-gp (MDCK-MDR1 cells) [8]", "result": "about 2.7 fold"}]}, {"smiles": "Cc1cccc(C)c1OCC(=O)NC(Cc1ccccc1)C(CC(Cc1ccccc1)NC(=O)C(C(C)C)N1CCCNC1=O)OC(=O)C(N)Cc1c[nH]c2ccccc12", "note": "(stereo not shown) [Trp-LPV, tryptophan-LPV]", "values": [{"measurement": "Solubility, fold higher relative to LPV", "setting": "[2]", "result": "~7", "unit": "fold"}, {"measurement": "Solubility in DDW", "setting": "[2]", "result": "274 ± 11", "unit": "µg/mL"}, {"measurement": "Degradation half life", "setting": "[4]; pH 4, 37 °C", "result": "123 ± 14", "unit": "h"}, {"measurement": "Degradation half life", "setting": "[4]; pH 5.5, 37 °C", "result": "50 ± 9", "unit": "h"}, {"measurement": "Degradation half life", "setting": "[4]; pH 7.4, 37 °C", "result": "5.4 ± 0.3", "unit": "h"}, {"measurement": "A-B permeability, fold higher relative to LPV", "setting": "P-gp (MDCK-MDR1 cells) [5]", "result": "~1.8", "unit": "fold"}, {"measurement": "Km", "setting": "[6]; read-out: Km (affinity constant), 0.5–40 µM, 5 min, microsomes 0.3 mg/mL, Michaelis-Menten fit", "result": "~13.2", "unit": "µM"}, {"measurement": "Half life in liver microsomes, fold higher compared to LPV", "setting": "[6]", "result": "1.6 to 1.8", "unit": "fold"}, {"measurement": "A-B permeability, fold higher relative to LPV", "setting": "MRP2 (MDCK-MRP2 cells) [7]", "result": "~1.7", "unit": "fold"}, {"measurement": "Cellular uptake, fold higher relative to LPV", "setting": "P-gp (MDCK-MDR1 cells) [8]", "result": "~1.8", "unit": "fold"}]}, {"smiles": "C[S+](C)[O-]", "note": "[DMSO]", "values": [{"measurement": "Reduction in absorbance (positive controls)", "setting": "MDCK-WT cells", "result": 30, "unit": "%"}]}]}
